pIC50: −log10 of the molar value. Entries after “also recorded” stand apart in the source; their conditions may differ. Where two headings read alike, the source gives them in different places.
Columns and labels:
STAT4 [1] = target: T1, STAT4 (Homo sapiens, UniProt Q14765); assay: STAT4 phosphorylation in TALL-104 cells stimulated by IL-12 or IL-12 and IL-18; type: cell-based; parameters: utilizing cellular lysates from the STAT4‐expressing natural killer cell line NK‐92; endogenous in cells; host or cells: NK-92 (DSMZ); settings: 4 h
T1 sequence (Q14765 1-748): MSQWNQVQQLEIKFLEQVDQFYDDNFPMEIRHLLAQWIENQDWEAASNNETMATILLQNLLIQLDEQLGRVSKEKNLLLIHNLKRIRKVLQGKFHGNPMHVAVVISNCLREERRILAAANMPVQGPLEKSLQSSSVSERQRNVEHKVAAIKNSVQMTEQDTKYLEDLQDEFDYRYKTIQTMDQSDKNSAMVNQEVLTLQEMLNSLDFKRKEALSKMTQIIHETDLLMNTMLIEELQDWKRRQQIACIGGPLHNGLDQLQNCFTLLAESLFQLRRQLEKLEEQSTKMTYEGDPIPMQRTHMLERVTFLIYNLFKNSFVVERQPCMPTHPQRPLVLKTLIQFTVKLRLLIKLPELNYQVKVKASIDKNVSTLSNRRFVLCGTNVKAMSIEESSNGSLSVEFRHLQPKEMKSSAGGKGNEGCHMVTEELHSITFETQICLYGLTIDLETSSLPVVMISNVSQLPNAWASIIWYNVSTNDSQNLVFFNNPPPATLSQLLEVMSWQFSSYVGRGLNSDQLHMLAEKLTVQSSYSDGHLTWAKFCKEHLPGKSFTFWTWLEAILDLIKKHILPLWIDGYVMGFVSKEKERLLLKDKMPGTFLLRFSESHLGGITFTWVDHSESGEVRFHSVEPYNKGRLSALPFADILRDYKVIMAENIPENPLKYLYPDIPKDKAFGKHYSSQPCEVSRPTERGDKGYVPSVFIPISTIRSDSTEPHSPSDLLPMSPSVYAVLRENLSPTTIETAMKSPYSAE
Experimental: (§1) NK-92 cells (DSMZ) were cultured in α-MEM containing 12.5% fetal bovine serum (FBS), 12.5% horse serum, 2 mM L-glutamine, penicillin/streptomycin and 50 U/ml IL -2. TALL-104 cells (ATCC, LGC Standards) were cultured in RPMI 1640 medium containing 20% FBS, 2 mM L - glutamine, penicillin/streptomy cin and 100 U/ml IL-2. […]
(§2) NK-92 cells were treated with test compound or DMSO in 1.5 ml medium in 12 -well plates (Corning) for 2 h (final DMSO concentration 0.2%), in the presence of 50 ng/ml IL -12 (PeproTech). For IFN-γ experiments (Figure 6 and S6), NK -92 cells or TALL-104 cells were treated for 4 h in the presence of 50 ng/ml IL-12 and 10 ng/ml IL-18 (Bio-Techne). […]
(§3) The components of cell lysates from treated cells, or heat-treated lysates from CETSA, were separated by SDS-PAGE (10%), transferred to nitrocellulose membrane (Bio-Rad) and detected using monoclonal rabbit primary antibodies (Cell Signaling), α-rabbit-HRP secondary antibody (Dako) and Western Lightning Plus chemiluminescence reagent (Perkin Elmer).
(§4) Bands were visualized using an ImageQuant system (GE Healthcare) and quantitated using ImageJ software (NIH). […]
(§5) The sitting drop was composed of 0.1 µl protein solution and 0.1 µl reservoir solution. Plates were stored at 19°C in a protein […]
(§6) In the first set of experiments, w e tried to crystallize STAT4 as a SUMO -STAT4 fusion protein […]
(§7) was cleaved off as described above. […]

STAT3 = STAT3 (Homo sapiens, UniProt P40763); assay: STAT3 Tyr705 phosphorylation in HCC-827 cells (Western blot); type: cell-based; parameters: endogenous in cells; settings: serum-free conditions, read-out: IC 50, phosphorylation of STAT3 (Tyr705)
Sequence of STAT3 (P40763 whole entry): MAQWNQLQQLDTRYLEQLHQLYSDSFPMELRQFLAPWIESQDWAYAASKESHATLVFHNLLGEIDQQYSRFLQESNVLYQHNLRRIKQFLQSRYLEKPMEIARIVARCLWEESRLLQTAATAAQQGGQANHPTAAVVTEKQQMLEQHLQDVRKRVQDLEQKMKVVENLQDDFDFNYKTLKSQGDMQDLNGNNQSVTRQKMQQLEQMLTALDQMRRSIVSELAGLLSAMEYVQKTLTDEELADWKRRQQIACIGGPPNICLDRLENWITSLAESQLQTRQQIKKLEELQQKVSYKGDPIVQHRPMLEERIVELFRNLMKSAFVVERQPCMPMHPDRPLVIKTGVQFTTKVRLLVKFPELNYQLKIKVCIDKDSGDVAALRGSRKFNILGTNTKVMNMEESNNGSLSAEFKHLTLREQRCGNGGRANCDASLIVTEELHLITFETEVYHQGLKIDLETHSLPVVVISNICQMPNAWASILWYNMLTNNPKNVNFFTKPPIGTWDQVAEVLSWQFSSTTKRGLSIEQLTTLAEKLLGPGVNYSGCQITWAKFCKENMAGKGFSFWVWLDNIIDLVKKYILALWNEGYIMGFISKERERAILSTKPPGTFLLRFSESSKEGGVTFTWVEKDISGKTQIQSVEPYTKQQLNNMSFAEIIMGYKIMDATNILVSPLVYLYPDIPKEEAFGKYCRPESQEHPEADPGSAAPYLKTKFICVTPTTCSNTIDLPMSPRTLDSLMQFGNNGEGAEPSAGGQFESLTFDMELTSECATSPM
Experimental: HCC-827 cells (DSMZ) and K562 cells
(DSMZ) were cultured in RPMI 1640 medium containing 10% FBS, 2 mM L -glutamine and penicillin/streptomycin. HCC -827 cells were subcultured by briefly rinsing with sterile PBS followed by incubation with 0.25% Trypsin-EDTA solution before inactivation by addition of cell culture medium (all reagents apart from cell lines were from Gibco at Thermo Fisher Scientific). […]
(§8) Cells were […]
harvested by washing twice with ice -cold TBS, followed by resuspension in TBS supplemented with protease/phosphatase inhibitors (100 ng/ml aprotinin, 1 mM Na3VO4, 10 mM NaF, 1 mM PMSF). The adherent HCC-827 cells were mechanically separated from the culture surface using plastic cell scrapers (A. Hartenstein). […]
as §3, §4, §5

STAT5a/5b = STAT5a/5b phosphorylation in K562 cells (Western blot); type: cell-based, human; settings: Tyr694 (STAT5a)/Tyr699 (STAT5b), read-out: IC 50, STAT5a/5b‐phosphorylation
Experimental: as §8
harvested by washing twice with ice -cold TBS, followed by resuspension in TBS supplemented with protease/phosphatase inhibitors (100 ng/ml aprotinin, 1 mM Na3VO4, 10 mM NaF, 1 mM […]
as §3, §4, §5, §6
(§9) was cleaved off as described above.
Screening for crystallization conditions for tag-free STAT4 was performed both in the absence or presence of 1 equivalent of 6m or 6h. Since the chosen protein concentration of 3.6 mg/ml appeared to be too low, screening was repeated with a higher concentration of 6.4 mg/ml STAT4 for all conditions (corresponding to 100 µM 6m). Both the SUMO-STAT4 and the tag-free STAT4 preferentially precipitated under conditions containing polyethylene glycol. […]

IFN‐γ induction [2] = assay: IL-12/IL-18-mediated IFN-γ induction in NK-92 cells; type: cell-based, human; settings: 4 h, 50 ng/ml IL-12 and 10 ng/ml IL-18
Experimental: (§10) NK-92 cells (DSMZ) were cultured in α-MEM containing 12.5% fetal bovine serum (FBS), 12.5% horse serum, 2 mM L-glutamine, penicillin/streptomycin and 50 U/ml IL -2. […]
as §2, §3, §4, §5, §6, §9
Screening for crystallization conditions for tag-free STAT4 was performed both in the absence or presence of 1 equivalent of 6m or 6h. […]

STAT4 [3] = target: T1, STAT4; assay: IL-12-induced STAT4 Tyr693 phosphorylation in NK-92 cells (Western blot); type: cell-based; parameters: utilizing cellular lysates from the STAT4‐expressing natural killer cell line NK‐92; endogenous in cells; host or cells: NK-92 (DSMZ)
Experimental: as §10, §3, §4, §5, §6, §9
Screening for crystallization conditions for tag-free STAT4 was performed both in the absence or presence of 1 equivalent of 6m or 6h. Since the chosen protein concentration of 3.6 mg/ml appeared to be too low, screening was repeated with a higher concentration of 6.4 mg/ml STAT4 for all conditions (corresponding to 100 µM 6m). Both the SUMO-STAT4 and the tag-free STAT4 preferentially precipitated under conditions containing polyethylene glycol. In one set of experiments, we also screened for conditions in the presence of the high-affinity peptide GY(PO3H2)LPQNID adapted from the IL-12 receptor. However, none of the conditions resulted in the growth of STAT4 crystals (Table S4).

IFN‐γ induction [4] = assay: IFN-γ induction in TALL-104 cells; type: cell-based, human; settings: 4 h, IL-12 or IL-12 and IL-18
Experimental: as §1, §2, §3, §4, §5, §6, §7

pIC50 (STAT3): 4.72 | pIC50 (STAT5a/5b): < 4.60
SMILES: Cc1cc(-c2ccc(C(F)(F)P(=O)(OCOC(=O)C(C)(C)C)OCOC(=O)C(C)(C)C)c(F)c2)cs1 [Compound 9]
STAT4 phosphorylation stimulated by IL‐12 alone or co‐stimulated by IL‐12 and IL‐18 (STAT4 [1]): inhibited | IL12/IL‐18‐mediated IFN‐γ induction (IFN‐γ induction [2]): strongly reduced; also recorded: inhibits | inhibition of IL‐12‐induced STAT4 Tyr693 phosphorylation (STAT4 [3]; 2 h, presence of 25% serum): moderately inhibits | pIC50 (STAT4 [3]; 2 h, presence of 25% serum, read-out: IC 50, IL‐12‐induced STAT4 phosphorylation): 4.11 | IL‐12/IL‐18‐mediated STAT4 phosphorylation (STAT4 [3]; 4 h, 50 ng/ml IL-12 and 10 ng/ml IL-18): strongly reduced; also recorded: inhibits | pIC50 (STAT4 [3]; IL-12, absence of serum, read-out: IC 50, STAT4 Tyr693 phosphorylation): 5.48 | IFN‐γ induction (IFN‐γ induction [4]): inhibited
